Results from patent publication US8329904B2, “Azacyclic derivatives” (Hoffmann-La Roche Inc., priority 2009, dated 2012).
pIC50: −log10 of the molar value.

Molecular target: T1, human HSL (Homo sapiens, UniProt Q05469)
T1 construct: overlapping PCR to generate a full length human HSL ORF with a 3′-His6 tag; His6 (C); made in house; host or cells: High 5 insect cells (baculovirus, pFast-BAC)
T1 sequence (Q05469 1-1076): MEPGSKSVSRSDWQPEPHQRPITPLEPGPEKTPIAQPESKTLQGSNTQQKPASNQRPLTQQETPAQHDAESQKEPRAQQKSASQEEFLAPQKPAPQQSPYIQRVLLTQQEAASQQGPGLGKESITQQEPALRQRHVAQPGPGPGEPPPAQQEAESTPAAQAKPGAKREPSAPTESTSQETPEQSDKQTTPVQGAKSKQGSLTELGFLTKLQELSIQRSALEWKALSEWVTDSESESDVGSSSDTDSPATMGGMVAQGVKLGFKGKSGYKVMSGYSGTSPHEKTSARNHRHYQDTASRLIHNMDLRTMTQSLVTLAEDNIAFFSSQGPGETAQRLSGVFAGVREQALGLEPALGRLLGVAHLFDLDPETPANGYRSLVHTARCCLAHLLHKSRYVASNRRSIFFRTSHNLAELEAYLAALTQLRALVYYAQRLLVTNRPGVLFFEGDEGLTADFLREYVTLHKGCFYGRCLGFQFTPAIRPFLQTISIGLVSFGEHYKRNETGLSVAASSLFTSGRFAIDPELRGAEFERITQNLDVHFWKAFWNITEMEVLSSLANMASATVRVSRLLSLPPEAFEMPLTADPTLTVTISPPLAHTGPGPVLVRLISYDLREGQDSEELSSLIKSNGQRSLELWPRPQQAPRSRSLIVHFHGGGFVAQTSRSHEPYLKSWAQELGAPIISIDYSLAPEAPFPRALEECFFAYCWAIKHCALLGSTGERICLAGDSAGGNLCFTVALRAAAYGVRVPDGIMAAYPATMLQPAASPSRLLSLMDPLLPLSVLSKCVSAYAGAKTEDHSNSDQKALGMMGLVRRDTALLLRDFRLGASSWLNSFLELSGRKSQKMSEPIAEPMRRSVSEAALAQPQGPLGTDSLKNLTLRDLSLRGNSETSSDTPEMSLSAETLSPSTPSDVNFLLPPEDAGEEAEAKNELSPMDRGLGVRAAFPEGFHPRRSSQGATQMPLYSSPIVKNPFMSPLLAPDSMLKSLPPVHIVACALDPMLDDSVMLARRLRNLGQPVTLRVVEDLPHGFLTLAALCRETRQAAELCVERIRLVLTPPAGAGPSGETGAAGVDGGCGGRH
Assay: Human Hormone-Sensitive Lipase (HSL) Enzyme Inhibition Assay
Format: biochemical
Settings: colorimetric assay, 2,3-dimercapto-1-propanol tributyrate (DMPT) substrate, 37° C. for 20 minutes, absorbance at 405 nm; read-out: HSL hum IC50
How it was run: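 Colorimetric thioester hydrolysis: compounds in DMSO series mixed with DMPT (1.5 mM) in MOPS pH 7.2 with BSA, then baculovirus-expressed His6-tagged full-length human HSL added, 37° C, 20 min. DTNB plus detergents added, 15 min room temperature, absorbance at 405 nm.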

Row | Structure (SMILES) | pIC50
1 | CCCNC(=O)N1CCC2(CC1)CCN(c1ccc(OC(F)(F)F)cc1)C2=O [Example 251, 1-Oxo-2-(4-trifluoromethoxy-phenyl)-2,8-diaza-spiro[4.5]decane-8-carboxylic acid propylamide] | 6.33
2 | CCCN(C)C(=O)N1CCC2(CC1)CCN(c1ccc(CC)cc1)C2=O [Example 252, 2-(4-Ethyl-phenyl)-1-oxo-2,8-diaza-spiro[4.5]decane-8-carboxylic acid methyl-propyl-amide] | 6.74
3 | CCCN(C)C(=O)N1CCC2(CC1)CCN(c1ccc(OC(F)(F)F)cc1)C2=O [Example 253, 1-Oxo-2-(4-trifluoromethoxy-phenyl)-2,8-diaza-spiro[4.5]decane-8-carboxylic acid methyl-propyl-amide] | 6.85
4 | CC(C)NC(=O)N1CCC2(CC1)CCN(c1ccc(OC(F)(F)F)cc1)C2=O [Example 254, 1-Oxo-2-(4-trifluoromethoxy-phenyl)-2,8-diaza-spiro[4.5]decane-8-carboxylic acid isopropylamide] | 6.40
5 | CCc1ccc(N2CCC3(CCN(C(=O)N4CCCCC4)CC3)C2=O)cc1 [Example 255, 2-(4-Ethyl-phenyl)-8-(piperidine-1-carbonyl)-2,8-diaza-spiro[4.5]decan-1-one] | 6.74
6 | O=C(N1CCCCC1)N1CCC2(CC1)CCN(c1ccc(OC(F)(F)F)cc1)C2=O [Example 256, 8-(Piperidine-1-carbonyl)-2-(4-trifluoromethoxy-phenyl)-2,8-diaza-spiro[4.5]decan-1-one] | 7.00
7 | O=C(N1CCOCC1)N1CCC2(CC1)CCN(c1ccc(OC(F)(F)F)cc1)C2=O [Example 257, 8-(Morpholine-4-carbonyl)-2-(4-trifluoromethoxy-phenyl)-2,8-diaza-spiro[4,5]decan-1-one] | 6.21
8 | CCc1ccc(N2CCC3(CCN(C(=O)Nc4ccc(F)cc4)CC3)C2=O)cc1 [Example 258, 2-(4-Ethyl-phenyl)-1-oxo-2,8-diaza-spiro[4.5]decane-8-carboxylic acid (4-fluoro-phenyl)-amide] | 6.40
9 | O=C(Nc1ccc(F)cc1)N1CCC2(CC1)CCN(c1ccc(OC(F)(F)F)cc1)C2=O [Example 259, 1-Oxo-2-(4-trifluoromethoxy-phenyl)-2,8-diaza-spiro[4.5]decane-8-carboxylic acid (4-fluoro-phenyl)-amide] | 6.40
10 | CCc1ccc(N2CCC3(CCN(C(=O)NCc4ccc(F)cc4)CC3)C2=O)cc1 [Example 260, 2-(4-Ethyl-phenyl)-1-oxo-2,8-diaza-spiro[4.5]decane-8-carboxylic acid 4-fluoro-benzylamide] | 6.51
11 | O=C(NCc1ccc(F)cc1)N1CCC2(CC1)CCN(c1ccc(OC(F)(F)F)cc1)C2=O [Example 261, 1-Oxo-2-(4-trifluoromethoxy-phenyl)-2,8-diaza-spiro[4.5]decane-8-carboxylic acid 4-fluoro-benzylamide] | 6.72
12 | O=C(NCc1ccccc1Cl)N1CCC2(CC1)CCN(c1ccc(OC(F)(F)F)cc1)C2=O [Example 262, 1-Oxo-2-(4-trifluoromethoxy-phenyl)-2,8-diaza-spiro[4.5]decane-8-carboxylic acid 2-chloro-benzylamide] | 6.47
13 | CCc1ccc(N2CCC3(CCN(C(=O)NCCc4ccccc4)CC3)C2=O)cc1 [Example 263, 2-(4-Ethyl-phenyl)-1-oxo-2,8-diaza-spiro[4.5]decane-8-carboxylic acid phenethyl-amide] | 6.80
14 | O=C(NCCc1ccccc1)N1CCC2(CC1)CCN(c1ccc(OC(F)(F)F)cc1)C2=O [Example 264, 1-Oxo-2-(4-trifluoromethoxy-phenyl)-2,8-diaza-spiro[4.5]decane-8-carboxylic acid phenethyl-amide] | 6.85
15 | O=C(N1CCCC1)N1CCC2(CC1)CCN(c1ccc(OC(F)(F)F)cc1)C2=O [Example 265, 8-(Pyrrolidine-1-carbonyl)-2-(4-trifluoromethoxy-phenyl)-2,8-diaza-spiro[4.5]decan-1-one] | 6.70
16 | CCN(CC)C(=O)N1CCC2(CC1)CCN(c1ccc(OC(F)(F)F)cc1)C2=O [Example 266, 1-Oxo-2-(4-trifluoromethoxy-phenyl)-2,8-diaza-spiro[4.5]decane-8-carboxylic acid diethylamide] | 6.48
17 | CC1CCCN1C(=O)N1CCC2(CC1)CCN(c1ccc(OC(F)(F)F)cc1)C2=O (stereo not drawn) [Example 267, 8-(2-Methyl-pyrrolidine-1-carbonyl)-2-(4-trifluoromethoxy-phenyl)-2,8-diaza-spiro[4.5]decan-1-one] | 6.82
18 | CCCN(CC)C(=O)N1CCC2(CC1)CCN(c1ccc(OC(F)(F)F)cc1)C2=O [Example 268, 1-Oxo-2-(4-trifluoromethoxy-phenyl)-2,8-diaza-spiro[4.5]decane-8-carboxylic acid ethyl-propyl-amide] | 6.66
19 | CCCCN(C)C(=O)N1CCC2(CC1)CCN(c1ccc(OC(F)(F)F)cc1)C2=O [Example 269, 1-Oxo-2-(4-trifluoromethoxy-phenyl)-2,8-diaza-spiro[4.5]decane-8-carboxylic acid butyl-methyl-amide] | 7.15
20 | CC(C)CN(C)C(=O)N1CCC2(CC1)CCN(c1ccc(OC(F)(F)F)cc1)C2=O [Example 270, 1-Oxo-2-(4-trifluoromethoxy-phenyl)-2,8-diaza-spiro[4.5]decane-8-carboxylic acid isobutyl-methyl-amide] | 7.15
21 | O=C(N1CCCCCC1)N1CCC2(CC1)CCN(c1ccc(OC(F)(F)F)cc1)C2=O [Example 271, 8-(Azepane-1-carbonyl)-2-(4-trifluoromethoxy-phenyl)-2,8-diaza-spiro[4.5]decan-1-one] | 6.66
22 | CC1CCCCN1C(=O)N1CCC2(CC1)CCN(c1ccc(OC(F)(F)F)cc1)C2=O (stereo not drawn) [Example 272, 8-(2-Methyl-piperidine-1-carbonyl)-2-(4-trifluoromethoxy-phenyl)-2,8-diaza-spiro[4.5]decan-1-one] | 7.00
23 | CCCCCN(C)C(=O)N1CCC2(CC1)CCN(c1ccc(OC(F)(F)F)cc1)C2=O [Example 273, 1-Oxo-2-(4-trifluoromethoxy-phenyl)-2,8-diaza-spiro[4.5]decane-8-carboxylic acid methyl-pentyl-amide] | 7.10
24 | CCN(CCOC)C(=O)N1CCC2(CC1)CCN(c1ccc(OC(F)(F)F)cc1)C2=O [Example 274, 1-Oxo-2-(4-trifluoromethoxy-phenyl)-2,8-diaza-spiro[4.5]decane-8-carboxylic acid ethyl-(2-methoxy-ethyl)-amide] | 6.85
25 | CN(C(=O)N1CCC2(CC1)CCN(c1ccc(OC(F)(F)F)cc1)C2=O)c1ccccc1 [Example 275, 1-Oxo-2-(4-trifluoromethoxy-phenyl)-2,8-diaza-spiro[4.5]decane-8-carboxylic acid methyl-phenyl-amide] | 7.22
26 | CN(C(=O)N1CCC2(CC1)CCN(c1ccc(OC(F)(F)F)cc1)C2=O)C1CCCCC1 [Example 276, 1-Oxo-2-(4-trifluoromethoxy-phenyl)-2,8-diaza-spiro[4.5]decane-8-carboxylic acid cyclohexyl-methyl-amide] | 7.15
27 | O=C(N1CCC2(CC1)CCN(c1ccc(OC(F)(F)F)cc1)C2=O)N1Cc2ccccc2C1 [Example 277, 8-(1,3-Dihydro-isoindole-2-carbonyl)-2-(4-trifluoromethoxy-phenyl)-2,8-diaza-spiro[4.5]decan-1-one] | 6.59
28 | CN(Cc1ccccc1)C(=O)N1CCC2(CC1)CCN(c1ccc(OC(F)(F)F)cc1)C2=O [Example 278, 1-Oxo-2-(4-trifluoromethoxy-phenyl)-2,8-diaza-spiro[4.5]decane-8-carboxylic acid benzyl-methyl-amide] | 6.92
29 | CCN(C(=O)N1CCC2(CC1)CCN(c1ccc(OC(F)(F)F)cc1)C2=O)c1ccccc1 [Example 279, 1-Oxo-2-(4-trifluoromethoxy-phenyl)-2,8-diaza-spiro[4.5]decane-8-carboxylic acid ethyl-phenyl-amide] | 7.40
30 | CN(C(=O)N1CCC2(CC1)CCN(c1ccc(OC(F)(F)F)cc1)C2=O)c1cccc(F)c1 [Example 280, 1-Oxo-2-(4-trifluoromethoxy-phenyl)-2,8-diaza-spiro[4.5]decane-8-carboxylic acid (3-fluoro-phenyl)-methyl-amide] | 7.05
